Entries after “also recorded” stand apart in the source; their conditions may differ.
Assays:
[1] = test system: trypsin; test: Tryptic digestion of Aβ after incubation with Zn2+; assay type: biochemical; details: Zn^2+ 200 μM
Procedure: (§1) Tryptic Digestion of Aβ-Aβ1-40 (13.9 μg) was incubated with Zn^2+ ([…] in blocking buffer, 1 h, 37° C.) and then digested with trypsin (12 ng, 3 h, 37° C.). The reaction was stopped by adding SDS sample buffer containing phenylmethylsulfonyl fluoride (1 mM), boiling the samples (5 min), and applying the samples to Tris/Tricine gel electrophoresis and transfer. The blot was washed with EDTA, Coomassie-stained, incubated with ^65Zn^2+, individual bands were excised, assayed for ^65Zn^2+ binding, and N-terminal sequenced to confirm the identity of the digestion products. The effects of Zn^2+ (up to 100 μM in TBS) on the activity of trypsin, itself, were assayed by assay of Z-Arg-amido-4-methylcoumarin (Sigma) fluorescent cleavage product and determined to be negligible.
(FIG. 4a) depicts a blot of tryptic digests of Aβ (13.9 μg) after incubation with increasing concentrations of zinc (lane labels, in micromolar), stained by Coomassie Blue. […] The migration of the low molecular size markers (STD) are indicated (in kilodaltons) on the right. (FIG. 4b) depicts ^65Zn^2+ binding to Aβ tryptic digestion products. The blot in 4a was incubated with ^65Zn^2+, the visible bands excised, and the bound counts for each band determined.

[2] = test system: trypsin; test: Trypsin activity, Z-Arg-amido-4-methylcoumarin fluorescent cleavage product; assay type: biochemical; details: Zn^2+ up to 100 μM in TBS
Procedure: as §1

[3] = target: T1, human Aβ1-40 (Homo sapiens, UniProt P05067); test: Human Aβ1-40 aggregation (0.2μ filtration) after incubation with various metal ions; assay type: physicochemical; details: metal ions 3 μM, equimolar basis, peptide 1.6 μM
T1 construct: made in house; host or cells: chemical synthesis (solid-phase Fmoc)
T1 sequence (P05067 672-711): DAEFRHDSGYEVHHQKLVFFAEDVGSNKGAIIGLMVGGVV
Text: The atomic number of the metal species is indicated. […] Data points are in duplicate.

[4] = target: T2, Aβ (Homo sapiens, UniProt P05067); test: SDS Tris/Tricine gel electrophoresis of Aβ incubated with Zn2+; details: Zn^2+ 200 μM, 1-24 h, 20° C.
T2 construct: purchased Sigma; Bachem (results also replicated with peptide from the Keck Laboratory, Yale); host or cells: chemical synthesis
T2 sequence (P05067 672-711): as above
Procedure: To further test whether zinc induces irreversible precipitation of Aβ in the absence of kaolin, Aβ incubated with Zn^2+ (200 μM, 1-24 h, 20° C.) was subjected to SDS Tris/Tricine gel electrophoresis.

[5] = Clinical study of oral zinc supplementation: cognition and plasma APP levels; assay type: in vivo, human
Procedure: The cerebral cortex, and especially the hippocampus, contains the highest concentrations of zinc in the body (C. J. Frederickson, M. A. Klitenick, W. I. Manton, J. B. Kirkpatrick, Brain Res. 273:335 (1983)), and is exposed to extreme fluctuations of extracellular zinc levels (0.15 to 300 μM, C. J. Frederickson, Int. Rev. Neurobiol. 31:145 (1989)), e.g. during synaptic transmission (S. Y. Assaf and S.-H. Chung, Nature 308:734 (1984); G. A. Howell, M. G. Welch, C. J. Frederickson, Nature 308:736 (1984)). The cortical vasculature contains an intraluminal zinc concentration of 20 μM (I. J. T. Davies, M. Musa, T. L. Dormandy, J. Clin. Pathol. 21:359 (1968)), but the perivascular interstitial zinc concentration is 0.15/μM (C. J. Frederickson, Int. Rev. Neurobiol. 31:145 (1989)). Both sites of high zinc concentration gradients are severely and consistently affected by the pathological lesions of AD (B. T. Hyman, G. W. Van Hoesen, L. J. Kroner, A. R. Damasio, Ann. Neurol. 20:472 (1986); G. G. Glenner and C. W. Wong, Biochem. Biophys. Res. Commun. 120:885 (1984)). […] Additional evidence for altered cerebral zinc metabolism in AD include decreased temporal lobe zinc levels (D. Wenstrup, W. D. Ehmann, W. R. Markesbery, Brain Res. 533:125 (1990); J. Constantinidis, Encephale 16:231 (1990); F. M. Corrigan, G. P. Reynolds, N. I. Ward, Biometals 6:149 (1993)), elevated (80%) CSF levels (C. O. Hershey et al, Neurology 33:1350 (1983)), an increase in extracellular Zn^2+-metalloproteinase activities in AD hippocampus (J. R. Backstrom, C. A. Miller, Z. A. Tökés, J. Neurochem. 58:983 (1992)), and decreased levels of astrocytic growth-inhibitory factor, a metallothionein-like protein which chelates zinc (Y. Uchida, K. Takio, K. Titani, Y. Ihara, M. Tomonaga, Neuron 7:337 (1991)). Recently, a clinical study assayed the effects of oral zinc supplementation (6.7-fold the recommended daily allowance, a dose commonly found in nutritional supplements) upon cognition and plasma APP levels in AD subjects and age-matched controls. […]

SMILES: [Zn+2] [Zn^2+, zinc]
- inhibition of Aβ hydrolysis by trypsin [1]: complete inhibition
- effects on the activity of trypsin itself [2]: negligible
- induction of aggregation of human Aβ1-40 among metal ions tested [3]: induce significant aggregation
- covalent or SDS-resistant polymerization of Aβ [4]: does not induce covalent or SDS-resistant polymerization
- drop in Mini-Mental State Examination scores ([5]; AD group, after four days of oral zinc supplementation): 31%
- effect on cognition in AD subjects ([5]; oral, 6.7-fold the recommended daily allowance): acute decline in cognition; also recorded: acutely adverse effect on cognition
- effect on age-matched control subjects ([5]; same conditions): remained unaffected
